Assay results as given in patent US11485731B2, “Compounds and methods useful in the treatment of a PRMT5-mediated disorder” (ARGONAUT THERAPEUTICS LIMITED, priority 2017, dated 2022).
pIC50: −log10 of the molar value.

Each molecule was assayed against human PRMT5/MEP50 (Homo sapiens (Human), UniProt O14744) (assay: PRMT5 chemiluminescent assay). Settings: human PRMT5/MEP50 expressed in HEK293 cells; biotinylated histone peptides; Histone H4 monomethyl R3 antibody; chemiluminescent readout.
Assay type: biochemical
In short: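 HEK293-expressed PRMT5/MEP50, diluted to 5 ng/µL in assay buffer, reacted 60 min with rotation on plate-bound biotinylated histone peptides. Product was detected with anti-histone H4 R3 monomethyl antibody (60 min), then HRP secondary (30 min) and chemiluminescent substrate. IC50 values came from the chemiluminescence signal.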

Chain of human PRMT5/MEP50 (O14744 whole entry): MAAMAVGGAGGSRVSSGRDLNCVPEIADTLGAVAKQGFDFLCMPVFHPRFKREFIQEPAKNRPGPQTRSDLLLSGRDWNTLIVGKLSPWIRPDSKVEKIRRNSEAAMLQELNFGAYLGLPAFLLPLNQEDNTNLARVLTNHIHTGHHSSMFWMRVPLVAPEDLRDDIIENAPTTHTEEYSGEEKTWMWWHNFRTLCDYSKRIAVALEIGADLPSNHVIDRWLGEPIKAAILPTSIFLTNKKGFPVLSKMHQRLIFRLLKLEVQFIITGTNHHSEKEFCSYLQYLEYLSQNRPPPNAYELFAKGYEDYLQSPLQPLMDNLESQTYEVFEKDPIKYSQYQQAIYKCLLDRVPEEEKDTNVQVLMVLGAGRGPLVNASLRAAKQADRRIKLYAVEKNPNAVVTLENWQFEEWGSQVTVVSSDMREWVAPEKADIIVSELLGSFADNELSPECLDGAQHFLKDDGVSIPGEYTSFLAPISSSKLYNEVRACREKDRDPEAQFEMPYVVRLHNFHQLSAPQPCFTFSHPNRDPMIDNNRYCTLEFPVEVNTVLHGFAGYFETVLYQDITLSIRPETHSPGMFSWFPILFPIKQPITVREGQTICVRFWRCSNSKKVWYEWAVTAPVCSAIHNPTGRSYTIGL
Chain of human PRMT5/MEP50 (Q9BQA1 whole entry partner): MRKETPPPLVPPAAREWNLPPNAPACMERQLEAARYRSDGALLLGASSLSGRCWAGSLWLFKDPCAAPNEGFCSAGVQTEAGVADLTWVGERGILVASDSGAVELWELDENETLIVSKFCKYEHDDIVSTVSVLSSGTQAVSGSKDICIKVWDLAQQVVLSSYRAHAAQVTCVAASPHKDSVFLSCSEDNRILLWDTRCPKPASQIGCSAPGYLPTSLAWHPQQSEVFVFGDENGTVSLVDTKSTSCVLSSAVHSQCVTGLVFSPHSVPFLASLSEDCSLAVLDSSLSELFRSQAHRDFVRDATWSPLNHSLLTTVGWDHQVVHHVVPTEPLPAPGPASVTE

pIC50 | Compound
4.41 | CC(=O)N1CCCN(C(=O)OCC(O)CN2CCc3ccccc3C2)CC1 (centres unmarked) [Example 4V, 3-(3,4-dihydroisoquinolin-2(1H)-yl)-2-hydroxypropyl 4-acetyl-1,4-diazepane-1-carboxylate]
6.63 | O=C(NCC(O)CN1CCc2sccc2C1)N1CCCc2ccccc21 (centres unmarked) [Example 1Y, N-(3-(6,7-dihydrothieno[3,2-c]pyridin-5(4H)-yl)-2-hydroxypropyl)-3,4-dihydroquinoline-1(2H)-carboxamide]
4.24 | CS(=O)(=O)N1CCCN(C(=O)NC[C@@H](O)CN2CCc3ccccc3C2)CC1 [Example 1BD, (R)-N-(3-(3,4-dihydroisoquinolin-2(1H)-yl)-2-hydroxypropyl)-4-(methylsulfonyl)-1,4-diazepane-1-carboxamide]
5.65 | O=C(OCC(O)CN1CCc2ccccc2C1)N1CC[S+]([O-])CC1 (centres unmarked) [Example 4M, 3-(3,4-dihydroisoquinolin-2(1H)-yl)-2-hydroxypropyl thiomorpholine-4-carboxylate 1-oxide]
7.34 | O=C(OCC(O)CN1CCc2sccc2C1)N1CCc2ccccc2C1 (centres unmarked) [Example 4AA, 3-(6,7-dihydrothieno[3,2-c]pyridin-5(4H)-yl)-2-hydroxypropyl 3,4-dihydroisoquinoline-2(1H)-carboxylate]
6.21 | O=C(OCC(O)CN1CCc2ccccc2C1)N1CCCCC1 (centres unmarked) [Example 3B, 2-hydroxy-3-(1,2,3,4-tetrahydroisoquinolin-2-yl)propyl piperidine-1-carboxylate]
5.84 | O=C(OCC(O)CN1CCc2sccc2C1)N1CCCc2ccccc21 (centres unmarked) [Example 4Y, 3-(6,7-dihydrothieno[3,2-c]pyridin-5(4H)-yl)-2-hydroxypropyl 3,4-dihydroquinoline-1(2H)-carboxylate]
6.48 | O=C(NCC(O)CN1CCc2ccccc2C1)N1CCCC(O)C1 (centres unmarked) [Example 1CK, N-(3-(3,4-dihydroisoquinolin-2(1H)-yl)-2-hydroxypropyl)-3-hydroxypiperidine-1-carboxamide]
6.61 | CN1CCCN(C(=O)OCC(O)CN2CCc3ccccc3C2)CC1 (centres unmarked) [Example 4J, 3-(3,4-dihydroisoquinolin-2(1H)-yl)-2-hydroxypropyl 4-methyl-1,4-diazepane-1-carboxylate]
5.00 | CC(=O)N1CCN(C(=O)NCC(O)CN2CCc3ccccc3C2)CC1 (centres unmarked) [Example 1B, 4-acetyl-N-[2-hydroxy-3-(1,2,3,4-tetrahydroisoquinolin-2-yl)propyl]piperazine-1-carboxamide]
6.78 | O=C(NC[C@H](O)CN1CCc2ccccc2C1)N1CCCC(O)(c2ccccc2)C1 (stereo partly drawn) [Example 1BH, N-((S)-3-(3,4-dihydroisoquinolin-2(1H)-yl)-2-hydroxypropyl)-3-hydroxy-3-phenylpiperidine-1-carboxamide]
